Test results: US20240099944A1, “Stable Skin Care Compositions Containing a Retinoid” (priority 2022, published 2024)

Assay: Yellow discoloration (b-value) by Color Test Method, accelerated stability 60° C. for two weeks
Format: physicochemical
Details: away from direct light, Example 2 with additional ingredient compared to Example 2
Experimental: This test was performed under accelerated stability conditions of 60° C., away from direct light for two weeks and the samples were stored in containers that limited the free flow of oxygen. […] The b-value was determined by the Color Test Method, described hereafter.
In Example 2, the DMDM hydantoin and iodopropynyl butylcarbamate preservative is replaced with a preservative system comprising hydroxyacetophenone and phenoxyethanol.
To measure the color of the compositions of the present invention, approximately 8 mL of the product to be tested is transferred into a petri dish (35×10 mm disposable) using a syringe. The Petri dish is then placed on the black half of a standard opacity chart (Form N2A, Leneta Company of Manwah, NJ or the equivalent thereof, of which the top half is black and the bottom half is white). The color (L, a, and b values) of the product in the petri dish is then measured using an integrated sphere spectrophotometer with settings selected to exclude specular reflection. The value for “a” correlates to a value along the red-green (horizontal) axis, and the value for “b” correlates to a value along the blue-yellow (vertical) axis. […] A more positive or negative value represents a more intense color. […]

O=S([O-])[O-].[Na+].[Na+] [sodium sulfite]
b-value vs. Example 2 (Control): dramatically reduced the composition's b-value
